According to ChEMBL document CHEMBL5346941, “Design, synthesis and evaluation of novel monoamine oxidase B (MAO-B) inhibitors with improved pharmacokinetic properties for Parkinson's disease” (Eur J Med Chem, 2023):
Activity calls are given as the source filed them. The rule behind the calls is not given here.

What was measured:
[1] = Bioavailability in fasted Sprague-Dawley rat at 5 mg/kg, IG measured for 24 hrs; format: ADME, organism-based; details: in vivo, po
[2] = Metabolic stability in dog liver microsomes assessed as intrinsic clearance at 1 uM incubated for 60 mins in presence of NADPH by LC-MS/MS analysis; format: ADME, Canis lupus familiaris, Microsome; details: read-out: CLH
[3] = Protein binding in dog plasma at 1 uM incubated for 5 hrs by LC-MS/MS based rapid equilibrium dialysis method; format: ADME, cell-free, Canis lupus familiaris; details: read-out: PPB (converted)
[4] = Metabolic stability in mouse liver microsomes assessed as half life at 1 uM incubated for 60 mins in presence of NADPH by LC-MS/MS analysis; format: ADME, Microsome
[5] = Cmax in fasted Sprague-Dawley rat at 5 mg/kg, IG measured for 24 hrs; format: ADME, organism-based; parameters: dose 5 mg/kg, time 24 hrs, route ig; details: in vivo, po
Mus musculus [6] = assay: Anti-parkinson activity in MPTP-induced dopamine deficit C57BL/6 mouse model assessed as increase in dopamine concentration in striatum at 3 to 10 mg/kg, ip pretreated with MPTP for 4 hrs followed by compound administration for 5 times once every 4 hrs further incubated with L-dopa at 50 mg/kg for 30 mins prior to last dose and measured after 30 mins by HPLC analysis; format: functional, organism-based; details: dose 3-10 mg/kg, time 16.5 hrs
[7] = Clearance in fasted Sprague-Dawley rat at 1 mg/kg, iv measured for 24 hrs; format: ADME, organism-based; details: in vivo
[8] = Bioavailability in fasted ICR mouse at 5 mg/kg, IG measured for 24 hrs; format: ADME, organism-based; details: in vivo, po
Mus musculus [9] = assay: In vivo inhibition of MAO-B in ICR mouse assessed as reduction in enzyme activity in brain administered once intraperitoneally for 30 to 60 mins by amplex red based assay; format: functional, organism-based; details: dose 0.08-1.28 mg/kg, route ip, time 30-60 min
[10] = molecular target: T1, Amine oxidase [flavin-containing] A (Homo sapiens, UniProt P21397); assay: Inhibition of recombinant human MAO-A expressed in Sf9 cells using […] as substrate preincubated for 15 mins followed by substrate addition and measured after 60 mins by luciferin based luminescence analysis
T1 sequence (P21397 whole entry): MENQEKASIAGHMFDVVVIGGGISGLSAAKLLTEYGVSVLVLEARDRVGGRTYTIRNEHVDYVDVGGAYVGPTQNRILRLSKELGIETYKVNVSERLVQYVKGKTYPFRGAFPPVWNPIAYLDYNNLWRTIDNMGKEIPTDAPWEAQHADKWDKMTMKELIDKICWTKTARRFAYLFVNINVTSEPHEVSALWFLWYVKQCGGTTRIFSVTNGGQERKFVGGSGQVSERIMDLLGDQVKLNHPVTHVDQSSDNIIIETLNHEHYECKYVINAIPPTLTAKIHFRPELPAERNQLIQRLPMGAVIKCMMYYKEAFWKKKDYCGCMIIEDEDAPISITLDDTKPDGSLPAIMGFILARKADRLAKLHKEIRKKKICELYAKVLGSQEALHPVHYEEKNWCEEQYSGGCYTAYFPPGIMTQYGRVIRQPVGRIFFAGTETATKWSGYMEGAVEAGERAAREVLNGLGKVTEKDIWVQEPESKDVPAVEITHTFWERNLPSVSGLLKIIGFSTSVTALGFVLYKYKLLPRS

[11] = Volume of distribution at steady state in fasted Sprague-Dawley rat at 1 mg/kg, iv measured for 24 hrs; format: ADME, organism-based; details: in vivo, read-out: Vdss
[12] = Drug concentration in Sprague-Dawley rat brain at 5 mg/kg, ip measured after 120 mins by LC-MS/MS analysis; format: ADME, organism-based; details: read-out: Ct
[13] = Elimination half life in fasted Sprague-Dawley rat at 1 mg/kg, iv measured for 24 hrs; format: ADME, organism-based; details: in vivo, read-out: beta t1/2 (converted)
[14] = Ratio of drug concentration in Sprague-Dawley brain to plasma at 5 mg/kg, ip measured after 60 mins by LC-MS/MS analysis; format: ADME, organism-based; details: rat, read-out: BPR
[15] = Protein binding in mouse plasma at 1 uM incubated for 5 hrs by LC-MS/MS based rapid equilibrium dialysis method; format: ADME, cell-free; details: read-out: PPB (converted)
[16] = AUC (0 to t) in fasted Sprague-Dawley rat at 5 mg/kg, IG measured for 24 hrs; format: ADME, organism-based; parameters: dose 5 mg/kg, time 24 hrs, route ig; details: in vivo, po
[17] = Drug concentration in Sprague-Dawley rat brain at 5 mg/kg, ip measured after 15 mins by LC-MS/MS analysis; format: ADME, organism-based; details: read-out: Ct
[18] = Metabolic stability in mouse liver microsomes assessed as intrinsic clearance at 1 uM incubated for 60 mins in presence of NADPH by LC-MS/MS analysis; format: ADME, Microsome; details: read-out: CLH
[19] = Cmax in fasted ICR mouse at 5 mg/kg, IG measured for 24 hrs; format: ADME, organism-based; parameters: dose 5 mg/kg, time 24 hrs, route ig; details: in vivo, po
[20] = Protein binding in monkey plasma at 0.1 to 10 uM incubated for 5 hrs by LC-MS/MS based rapid equilibrium dialysis method; format: ADME, cell-free, Macaca mulatta; details: rhesus monkey, dose 0.1-10 µM, read-out: PPB (converted)
[21] = Ratio of drug concentration in Sprague-Dawley brain to plasma at 5 mg/kg, ip measured after 15 mins by LC-MS/MS analysis; format: ADME, organism-based; details: rat, read-out: BPR
CYP3A4 = CYP3A4 (Homo sapiens, UniProt P08684); assay: Inhibition of CYP3A4 in human liver microsomes using midazolam as substrate at 10 uM incubated for 5 mins in presence of NADPH by LC-MS/MS analysis relative to control; format: ADME, Microsome; details: probe midazolam
CYP3A4, sequence (P08684 whole entry): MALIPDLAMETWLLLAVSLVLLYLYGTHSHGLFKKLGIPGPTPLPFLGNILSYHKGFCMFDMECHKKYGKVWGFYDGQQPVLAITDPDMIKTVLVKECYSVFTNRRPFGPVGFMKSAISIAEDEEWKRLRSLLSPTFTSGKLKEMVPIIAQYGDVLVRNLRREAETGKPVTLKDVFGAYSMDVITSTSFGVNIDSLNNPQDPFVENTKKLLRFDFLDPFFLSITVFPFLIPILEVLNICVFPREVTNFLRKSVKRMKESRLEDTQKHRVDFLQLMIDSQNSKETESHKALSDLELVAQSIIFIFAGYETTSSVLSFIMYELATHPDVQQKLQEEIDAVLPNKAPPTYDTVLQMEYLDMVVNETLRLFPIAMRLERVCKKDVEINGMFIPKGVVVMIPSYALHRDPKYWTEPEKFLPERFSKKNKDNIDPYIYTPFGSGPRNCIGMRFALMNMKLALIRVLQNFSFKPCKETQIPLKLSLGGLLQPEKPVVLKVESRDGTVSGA

CYP2C8 = molecular target: T2, CYP2C8 (Homo sapiens, UniProt P10632); assay: Inhibition of CYP2C8 in human liver microsomes using amodiaquine as substrate at 10 uM incubated for 45 mins in presence of NADPH by LC-MS/MS analysis relative to control; format: ADME, Microsome; details: probe amodiaquine
T2 sequence (P10632 whole entry): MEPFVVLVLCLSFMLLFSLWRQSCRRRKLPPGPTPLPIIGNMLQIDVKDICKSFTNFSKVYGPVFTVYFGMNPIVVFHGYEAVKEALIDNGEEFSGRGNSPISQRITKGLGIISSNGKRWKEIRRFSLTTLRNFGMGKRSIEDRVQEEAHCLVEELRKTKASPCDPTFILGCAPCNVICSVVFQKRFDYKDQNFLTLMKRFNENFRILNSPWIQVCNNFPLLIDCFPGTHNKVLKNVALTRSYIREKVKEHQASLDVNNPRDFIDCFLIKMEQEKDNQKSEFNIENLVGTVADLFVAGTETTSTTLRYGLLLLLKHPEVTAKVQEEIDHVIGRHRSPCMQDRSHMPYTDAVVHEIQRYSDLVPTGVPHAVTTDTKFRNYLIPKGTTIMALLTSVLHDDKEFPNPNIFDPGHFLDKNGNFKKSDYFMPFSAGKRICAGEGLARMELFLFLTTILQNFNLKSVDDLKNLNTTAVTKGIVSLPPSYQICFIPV

[22] = AUC (0 to t) in fasted ICR mouse at 5 mg/kg, IG measured for 24 hrs; format: ADME, organism-based; parameters: dose 5 mg/kg, time 24 hrs, route ig; details: in vivo, po
[23] = Cmax in fasted Sprague-Dawley rat at 1 mg/kg, iv measured for 24 hrs; format: ADME, organism-based; parameters: dose 1 mg/kg, time 24 hrs, route iv; details: Sprague-Dawley, in vivo, read-out: Cmax
[24] = In vivo inhibition of MAO-B in ICR mouse assessed as reduction in enzyme activity in brain by measuring fold change at 1.28 mg/kg, ip administered once for 30 to 60 mins by amplex red based assay relative to safinamide; format: functional; details: time 30-60 min
[25] = AUC (0 to t) in fasted ICR mouse at 2 mg/kg, iv measured for 24 hrs; format: ADME, organism-based; parameters: dose 2 mg/kg, time 24 hrs, route iv; details: in vivo

Q: With `NC(=O)[C@@H]1C[C@H](F)CN1Cc1ccc2oc(-c3ccc(F)cc3)cc2c1` as the compound, how does the bioavailability [1] read?
A: 150%

Q: What about the CLint scaled at 1 µM [2] of the same compound?
A: 7.5 mL/min/kg

Q: What about the fraction unbound at 5 h, 1 µM [3] of the same compound?
A: 0.0036

Q: And the half-life at 1 µM [4]?
A: 169 min

Q: What about the Cmax [5] of the same compound?
A: 436 ng/mL

Q: What about the Activity (Mus musculus [6]) of the same compound?
A: Active

Q: And the clearance [7]?
A: 54.2 mL/min/kg

Q: And the bioavailability [8]?
A: 105%

Q: And the inhibition (Mus musculus [9])?
A: Active

Q: And the IC50 [10]?
A: > 10 µM

Q: What about the Vd [11] of the same compound?
A: 3.33 L/kg

Q: What about the concentration at 2 h [12] of the same compound?
A: 7090 ng/g

Q: What about the half-life [13] of the same compound?
A: 44.4 min

Q: What about the Kp at 1 h [14] of the same compound?
A: 16.2

Q: What about the fraction unbound at 5 h, 1 µM [15] of the same compound?
A: 0.0066

Q: What about the AUC(0-t) at 24 h [16] of the same compound?
A: 2280 ng·h/mL

Q: And the concentration at 0.25 h [17]?
A: 5560 ng/g

Q: What about the CLint scaled at 1 µM [18] of the same compound?
A: 6.9 mL/min/kg

Q: What about the Cmax [19] of the same compound?
A: 913 ng/mL

Q: And the fraction unbound at 5 h, up to 10 µM [20]?
A: 0.0029

Q: And the Kp at 0.25 h [21]?
A: 10.4

Q: What about the inhibition at 5 min, 10 µM (CYP3A4) of the same compound?
A: -45.2%

Q: What about the inhibition at 0.75 h, 10 µM (CYP2C8) of the same compound?
A: 5.74%

Q: What about the AUC(0-t) at 24 h [22] of the same compound?
A: 7950 ng·h/mL

Q: What about the Cmax [23] of the same compound?
A: 273 ng/mL

Q: And the “fold change (FC)” value [24]?
A: 5

Q: What about the AUC(0-t) at 24 h [25] of the same compound?
A: 2680 ng·h/mL
